Common to all, as to assay: DTP human tumour cell line panel, 48 h
Assay [1] relates to NCI-H23.
The test system of assay [2] is SK-MEL-2.
The test system of assay [3] is NCI-H226.
Assay [4] concerns TK-10.
Assay [5] has as its system SK-MEL-28.
For assay [6], the system named is A549.
Assay [7] concerns ACHN.
Assay [8] relates to MCF7.
The test system of assay [9] is HT-29.
Assay [10] has as its system EKVX.
Assay [11] concerns HL-60.
Assay [12] deals with SR.
Assay [13] concerns MDA-MB-435.
Assay [14] deals with A498.
The subject of assay [15] is SK-MEL-5.
Assay [16] deals with RXF 393.
The test system of assay [17] is SF-295.
The test system of assay [18] is M14.
Assay [19] has as its system UO-31.
Assay [20] has as its system PC-3.

Each structure is given as a SMILES string.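 Five compound concentrations were applied to cells in 96-well plates for 48 hours; endpoints were derived by simple linear interpolation of the resulting dose-response curve. GI50 is the concentration that inhibits growth by half.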 The source made the active and inactive calls. Rule as the data show it: active = GI50 up to about 1.1 µM and inactive = higher.

As to `CCOc1ccc(NC2=CC(=O)C(=O)c3ccccc32)cc1`, the GI50 in [1] was 1.91 µM (inactive); in [2] it was 4.31 µM (inactive); in [3], 4.86 µM (inactive); in assay [4], 8.32 µM (inactive); in assay [5], 3.27 µM (inactive); in assay [6] it was 2.74 µM (inactive). Moreover, the GI50 in assay [7] is 2.28 µM (inactive); in [8], 2.15 µM (inactive); in [9], 5.35 µM (inactive); in [10], 16.4 µM (inactive); in [11], 0.459 µM (active); in [12] it was 3.4 µM (inactive). The GI50 is 1.8 µM (inactive) in assay [13]; 3.61 µM (inactive) in assay [14]; 1.59 µM (inactive) in assay [15]; 5.87 µM (inactive) in assay [16]; 2.61 µM (inactive) in [17]; 1.75 µM (inactive) in assay [18]. For the same compound, the results for the GI50 in [19] and in assay [20] were 4.45 µM (inactive) and 3.12 µM (inactive), respectively.

As for `O=CC1=C(C(=O)OC(c2ccccc2)c2ccccc2)N2C(=O)[C@@H](NC(=O)Cc3cccs3)[C@H]2SC1`, the GI50 was 73.6 µM (inactive) in [1]; > 100 µM (inactive) in [2]; > 100 µM (inactive) in assay [3]; > 100 µM (inactive) in assay [4]; > 100 µM (inactive) in [6]; > 100 µM (inactive) in [7]. The GI50 was > 100 µM (inactive) in assay [8]; > 100 µM (inactive) in assay [10]; 23.3 µM (inactive) in assay [11]; 13.2 µM (inactive) in assay [12]; 85.5 µM (inactive) in assay [13]; > 100 µM (inactive) in assay [14]. Besides, the GI50 in assay [15] was > 100 µM (inactive); in [16], > 100 µM (inactive); in assay [17], > 100 µM (inactive); in [18], > 100 µM (inactive); in assay [19], 40 µM (inactive); in assay [20], > 100 µM (inactive).

Take `O=C(NNCc1ccco1)c1cc2ccccc2[nH]1`: the GI50 in assay [1] was > 61.9 µM (inactive); in assay [2], > 100 µM (inactive); in [3], > 100 µM (inactive); in assay [4], > 58.1 µM (inactive); in assay [5], > 100 µM (inactive); in assay [6], > 100 µM (inactive). For the same compound, the GI50 in assay [7] was > 54.7 µM (inactive); in assay [8], 0.133 µM (active); in assay [9], > 86.9 µM (inactive); in [10], 61.5 µM (inactive); in assay [11], > 29.1 µM (inactive); in assay [12] it was > 78.9 µM (inactive). Further, the GI50 was > 85.5 µM (inactive) in assay [13]; > 100 µM (inactive) in [14]; > 100 µM (inactive) in [15]; > 100 µM (inactive) in [16]; 91.8 µM (inactive) in assay [17]; > 94 µM (inactive) in [18]. The GI50 is > 74.6 µM (inactive) in [19] and > 91 µM (inactive) in assay [20].

`CC(C)OP(=O)(OC(C)C)/C(C#N)=C/c1ccco1`: the GI50 in assay [1], in assay [2], in assay [3], in assay [4], in assay [5] and in assay [6] was > 100 µM (inactive) throughout. The GI50 in assay [7], in [8], in [9], in assay [10], in [11] and in assay [12] was > 100 µM (inactive) in each case. Also, the GI50 in assay [13], in [14], in assay [15], in [16], in assay [17] and in assay [18] was > 100 µM (inactive) each time. In addition, the values for the GI50 in [19] and in [20] were 5.19 µM (inactive) and > 100 µM (inactive), respectively.

For the compound `O=[N+]([O-])c1ccc(Cl)c(/C=N/C23CC4CC(CC(C4)C2)C3)c1`, the GI50 in assay [1], in assay [2], in assay [3], in assay [4], in assay [5] and in [6] was > 10 µM (inactive) in each case. Besides, the GI50 in assay [7] is > 10 µM (inactive); in assay [8] it was 3.08 µM (inactive); in assay [9], > 10 µM (inactive); in assay [10] it was > 10 µM (inactive); in assay [11], 2.05 µM (inactive); in assay [12] it was 4.1 µM (inactive). Also, the GI50 in [13] is > 6.34 µM (inactive); in assay [14], > 10 µM (inactive); in [15], 3.5 µM (inactive); in assay [16], > 10 µM (inactive); in assay [17], > 10 µM (inactive); in assay [18], > 6.22 µM (inactive). The GI50 in assay [19] and in assay [20] was > 10 µM (inactive) in each case.

Turning to `N#CC1C=Cc2ccccc2N1C(=O)Oc1ccccc1` (stereo unspecified), the GI50 was 58.9 µM (inactive) in [1]; 23.1 µM (inactive) in assay [2]; 42.5 µM (inactive) in [3]; 44.8 µM (inactive) in assay [4]; > 100 µM (inactive) in assay [5]; 49.2 µM (inactive) in assay [6]. Besides, the GI50 is 50.2 µM (inactive) in assay [7]; 41.8 µM (inactive) in assay [8]; 44.3 µM (inactive) in assay [9]; 42.4 µM (inactive) in [10]; 19.3 µM (inactive) in assay [11]; 33.8 µM (inactive) in assay [12]. For the same compound, the GI50 in assay [13] was 23.7 µM (inactive); in assay [14], 33.1 µM (inactive); in assay [15] it was 46.5 µM (inactive); in [16], 66.4 µM (inactive); in assay [18], 46.7 µM (inactive); in assay [19] it was 41.7 µM (inactive). In assay [20], the GI50 is 52.1 µM (inactive).

Take `COc1cc2cc(C(=O)N3CC(CCl)c4c3cc(NC(=O)C(C)(C)c3ccccc3[N+](=O)[O-])c3ccccc43)[nH]c2c(OC)c1OC` (stereo unspecified): the GI50 is 0.524 µM (active) in assay [1]; 6.93 µM (inactive) in [2]; 5.14 µM (inactive) in [3]; 8.87 µM (inactive) in assay [4]; 7.16 µM (inactive) in [5]; 0.675 µM (active) in assay [6]. In addition, the GI50 is 0.385 µM (active) in assay [7]; 0.142 µM (active) in [8]; 1.6 µM (inactive) in [9]; 11.7 µM (inactive) in [10]; 1.36 µM (inactive) in assay [11]; 0.192 µM (active) in [12]. Further, the GI50 in assay [13] is 1.75 µM (inactive); in assay [14], 0.78 µM (active); in assay [15] it was 1.77 µM (inactive); in [16], 1.42 µM (inactive); in assay [17] it was 1.67 µM (inactive); in [18], 1.75 µM (inactive). The GI50 is 0.968 µM (active) in assay [19] and 1.16 µM (inactive) in [20].

In the case of `COc1cc(C(=O)OC2CC34CCNC35CC(OC5(OC)C2O)c2cc3c(cc24)OCO3)ccc1O` (stereo unspecified), the GI50 in assay [1], in assay [2], in assay [3], in assay [4], in assay [5] and in assay [6] was > 100 µM (inactive) in each case. Further, the GI50 in [7], in [8], in [9], in [10], in assay [11] and in assay [12] was > 100 µM (inactive) throughout. Also, the GI50 in assay [13], in assay [14], in [15], in [16], in assay [17] and in assay [18] was > 100 µM (inactive) throughout. Besides, the GI50 in [20] is > 100 µM (inactive).

Turning to `Cc1cnc2nc(-c3ccc(F)cc3)cc(O)c2c1`, the GI50 was 41.3 µM (inactive) in assay [1]; 25.4 µM (inactive) in assay [2]; 27.1 µM (inactive) in assay [3]; 48 µM (inactive) in [4]; > 87.1 µM (inactive) in assay [5]; 42.4 µM (inactive) in assay [6]. The GI50 in [7] was 57.5 µM (inactive); in assay [8], 47.5 µM (inactive); in [9], 26.4 µM (inactive); in assay [10] it was 30.9 µM (inactive); in [11], 3.26 µM (inactive); in assay [12] it was 5.14 µM (inactive). For the same compound, the GI50 in assay [13] is 2.81 µM (inactive); in assay [14] it was 25.4 µM (inactive); in assay [15], 26.6 µM (inactive); in assay [16] it was 31.3 µM (inactive); in assay [17], 25.9 µM (inactive); in assay [18], 34.6 µM (inactive). Besides, the GI50 in assay [19] is 48.2 µM (inactive); in assay [20] it was 28.6 µM (inactive).

Consider `CSc1ccc2c(c1)c(CCN)c(C)n2Cc1ccccc1Cl`, for which the GI50 in [1] is 1.93 µM (inactive); in [2] it was 1.8 µM (inactive); in assay [3] it was 1.66 µM (inactive); in assay [4], 1.73 µM (inactive); in assay [5] it was 1.75 µM (inactive); in [6], 1.68 µM (inactive). For the same compound, the GI50 is 1.69 µM (inactive) in [7]; 1.85 µM (inactive) in [8]; 1.6 µM (inactive) in assay [9]; 1.62 µM (inactive) in assay [10]; 1.56 µM (inactive) in [11]; 2.42 µM (inactive) in assay [12]. The GI50 in assay [13] is 1.67 µM (inactive); in [14], 1.71 µM (inactive); in assay [15], 1.72 µM (inactive); in [16], 1.4 µM (inactive); in [17], 1.82 µM (inactive); in [18] it was 1.72 µM (inactive). Further, the GI50 in [19] and in assay [20] was 1.52 µM (inactive) in each case.

For the origin of these results see ChEMBL document CHEMBL1201862, “PubChem BioAssay data set” (2004).
